Article PMC10373199 (ACS Omega, 2023)
In brackets after ≈: the same amount, converted by molar mass. Read-outs that look alike come from different tables or passages of the source.

Tests used:
SR = assay: NCI five-dose screen, SR; assay type: cell-based; details: Homo sapiens
NCI-H226 = assay: NCI five-dose screen, NCI-H226; assay type: cell-based; details: Homo sapiens
SN12C = assay: NCI five-dose screen, SN12C; assay type: cell-based; details: Homo sapiens
K-562 = assay: NCI five-dose screen, K-562; assay type: cell-based; details: Homo sapiens, K562
SNB-75 = assay: NCI five-dose screen, SNB-75; assay type: cell-based; details: Homo sapiens
MOLT-4 = assay: NCI five-dose screen, MOLT-4; assay type: cell-based; details: Homo sapiens
HT29 = assay: NCI five-dose screen, HT29; assay type: cell-based; details: Homo sapiens, HT-29
HOP-62 = assay: NCI five-dose screen, HOP-62; assay type: cell-based; details: Homo sapiens
MDA-MB-468 = assay: NCI five-dose screen, MDA-MB-468; assay type: cell-based; details: Homo sapiens
CAKI-1 = assay: NCI five-dose screen, CAKI-1; assay type: cell-based; details: Homo sapiens
UO-31 = assay: NCI five-dose screen, UO-31; assay type: cell-based; details: Homo sapiens
A549/ATCC = assay: NCI five-dose screen, A549/ATCC; assay type: cell-based; details: Homo sapiens
HCT-15 = assay: NCI five-dose screen, HCT-15; assay type: cell-based; details: Homo sapiens
UACC-62 = assay: NCI five-dose screen, UACC-62; assay type: cell-based; details: Homo sapiens
M14 = assay: NCI five-dose screen, M14; assay type: cell-based; details: Homo sapiens
CCRF-CEM = assay: NCI five-dose screen, CCRF-CEM; assay type: cell-based; details: Homo sapiens
NCI-H522 = assay: NCI five-dose screen, NCI-H522; assay type: cell-based; details: Homo sapiens
HS 578T = assay: NCI five-dose screen, HS 578T; assay type: cell-based; details: Homo sapiens
NCI-H322M = assay: NCI five-dose screen, NCI-H322M; assay type: cell-based; details: Homo sapiens
MCF7 = assay: NCI five-dose screen, MCF7; assay type: cell-based; details: Homo sapiens
SW-620 = assay: NCI five-dose screen, SW-620; assay type: cell-based; details: Homo sapiens
HL-60 (TB) = assay: NCI five-dose screen, HL-60; assay type: cell-based; details: Homo sapiens
OVCAR-5 = assay: NCI five-dose screen, OVCAR-5; assay type: cell-based; details: Homo sapiens
HCT-116 = assay: NCI five-dose screen, HCT-116; assay type: cell-based; details: Homo sapiens
RXF 393 = assay: NCI five-dose screen, RXF 393; assay type: cell-based; details: Homo sapiens
OVCAR-3 = assay: NCI five-dose screen, OVCAR-3; assay type: cell-based; details: Homo sapiens
RPMI-8226 = assay: NCI five-dose screen, RPMI-8226; assay type: cell-based; details: Homo sapiens
COLO 205 = assay: NCI five-dose screen, COLO 205; assay type: cell-based; details: Homo sapiens
LOX IMVI = assay: NCI five-dose screen, LOX IMVI; assay type: cell-based; details: Homo sapiens
SK-MEL-28 = assay: NCI five-dose screen, SK-MEL-28; assay type: cell-based; details: Homo sapiens
SNB-19 = assay: NCI five-dose screen, SNB-19; assay type: cell-based; details: Homo sapiens
OVCAR-4 = assay: NCI five-dose screen, OVCAR-4; assay type: cell-based; details: Homo sapiens
SF-295 = assay: NCI five-dose screen, SF-295; assay type: cell-based; details: Homo sapiens
BT-549 = assay: NCI five-dose screen, BT-549; assay type: cell-based; details: Homo sapiens
60 NCI tumor cell lines = assay: NCI one-dose screen, mean over 60 tumor cell lines; assay type: cell-based; details: Homo sapiens, read-out: mean growth inhibition (%)
MDA-MB-435 = assay: NCI five-dose screen, MDA-MB-435; assay type: cell-based; details: Homo sapiens
Ishikawa cells = assay: AlkP activity in Ishikawa cells; assay type: cell-based, human; details: 72 h, DMSO set to 1
HOP-92 = assay: NCI five-dose screen, HOP-92; assay type: cell-based; details: Homo sapiens
MDA-MB-231/ATCC = assay: NCI five-dose screen, MDA-MB-231/ATCC; assay type: cell-based; details: Homo sapiens
786–0 = assay: NCI five-dose screen, 786–0; assay type: cell-based; details: Homo sapiens
SF-539 = assay: NCI five-dose screen, SF-539; assay type: cell-based; details: Homo sapiens
SK-MEL-2 = assay: NCI five-dose screen, SK-MEL-2; assay type: cell-based; details: Homo sapiens
EKVX = assay: NCI five-dose screen, EKVX; assay type: cell-based; details: Homo sapiens
KM12 = assay: NCI five-dose screen, KM12; assay type: cell-based; details: Homo sapiens
SF-268 = assay: NCI five-dose screen, SF-268; assay type: cell-based; details: Homo sapiens
A498 = assay: NCI five-dose screen, A498; assay type: cell-based; details: Homo sapiens
NCI-H460 = assay: NCI five-dose screen, NCI-H460; assay type: cell-based; details: Homo sapiens
T-47D = assay: NCI five-dose screen, T-47D; assay type: cell-based; details: Homo sapiens, T47D
MALME-3M = assay: NCI five-dose screen, MALME-3M; assay type: cell-based; details: Homo sapiens
PC-3 = assay: NCI five-dose screen, PC-3; assay type: cell-based; details: Homo sapiens
OVCAR-8 = assay: NCI five-dose screen, OVCAR-8; assay type: cell-based; details: Homo sapiens
DU-145 = assay: NCI five-dose screen, DU-145; assay type: cell-based; details: Homo sapiens
MCF-7 = assay: NCI one-dose screen, MCF-7; assay type: cell-based; details: Homo sapiens, MCF7, read-out: growth inhibition on MCF-7 (%), 10 μM
IGROV1 = assay: NCI five-dose screen, IGROV1; assay type: cell-based; details: Homo sapiens, IGROV-1
U251 = assay: NCI five-dose screen, U251; assay type: cell-based; details: Homo sapiens, U-251
UACC-257 = assay: NCI five-dose screen, UACC-257; assay type: cell-based; details: Homo sapiens
ACHN = assay: NCI five-dose screen, ACHN; assay type: cell-based; details: Homo sapiens
HCC-2998 = assay: NCI five-dose screen, HCC-2998; assay type: cell-based; details: Homo sapiens
NCI-H23 = assay: NCI five-dose screen, NCI-H23; assay type: cell-based; details: Homo sapiens
SK-MEL-5 = assay: NCI five-dose screen, SK-MEL-5; assay type: cell-based; details: Homo sapiens
TK-10 = assay: NCI five-dose screen, TK-10; assay type: cell-based; details: Homo sapiens
NCI/ADR-RES = assay: NCI five-dose screen, NCI/ADR-RES; assay type: cell-based; details: Homo sapiens
60 different cell lines = assay: NCI five-dose screen, mean/median over 60 cell lines; assay type: cell-based; details: Homo sapiens
SK-OV-3 = assay: NCI five-dose screen, SK-OV-3; assay type: cell-based; details: Homo sapiens
influenza A virus H1N1 = assay: Influenza A virus H1N1 screening, visual CPE inhibition; assay type: cell-based, influenza A virus H1N1 (California/07/2009)

CC/C(=C(\c1ccccc1)c1ccc(OCCN(C)C)cc1)c1ccccc1 [TAM, Tamoxifen]
GI50 (SR): 1.26 µM
GI50 (NCI-H226): 10 µM
GI50 (SN12C): 3.98 µM
GI50 (K-562): 1.99 µM
GI50 (SNB-75): 5.01 µM
GI50 (MOLT-4): 2.51 µM
GI50 (HT29): 2.51 µM
GI50 (HOP-62): 10 µM
GI50 (MDA-MB-468): 1.96 µM
GI50 (CAKI-1): 3.98 µM
GI50 (UO-31): 6.31 µM
GI50 (A549/ATCC): 3.98 µM
GI50 (HCT-15): 3.16 µM
GI50 (UACC-62): 6.31 µM
GI50 (M14): 2.51 µM
GI50 (CCRF-CEM): 3.16 µM
GI50 (NCI-H522): 6.31 µM
GI50 (HS 578T): 3.98 µM
GI50 (NCI-H322M): 7.94 µM
GI50 (MCF7): 1.58 µM
GI50 (SW-620): 3.16 µM
GI50 (HL-60 (TB)): 2.51 µM
GI50 (OVCAR-5): 6.31 µM
GI50 (HCT-116): 3.98 µM
GI50 (RXF 393): 2.51 µM
GI50 (OVCAR-3): 3.98 µM
GI50 (RPMI-8226): 2.51 µM
GI50 (COLO 205): 2.15 µM
GI50 (LOX IMVI): 2.51 µM
GI50 (SK-MEL-28): 3.98 µM
GI50 (SNB-19): 6.31 µM
GI50 (OVCAR-4): 6.31 µM
GI50 (SF-295): 1.96 µM
GI50 (BT-549): 6.31 µM
inhibition at 10 µM (60 NCI tumor cell lines): ≥ 100%
GI50 (MDA-MB-435): 3.16 µM
AlkP activity (Ishikawa cells; 1 μM): 1.60 ± 0.55
AlkP activity (Ishikawa cells; 10 μM): 1.02 ± 0.37
GI50 (HOP-92): 2.52 µM
GI50 (MDA-MB-231/ATCC): 6.31 µM
GI50 (786–0): 3.98 µM
GI50 (SF-539): 5.01 µM
GI50 (SK-MEL-2): 5.01 µM
GI50 (EKVX): 6.31 µM
GI50 (KM12): 3.16 µM
GI50 (SF-268): 6.31 µM
GI50 (A498): 6.31 µM
GI50 (NCI-H460): 3.16 µM
GI50 (T-47D): 2.51 µM
GI50 (MALME-3M): 3.16 µM
GI50 (PC-3): 3.16 µM
GI50 (OVCAR-8): 7.94 µM
GI50 (DU-145): 6.31 µM
inhibition at 10 µM (MCF-7): ≥ 100%
GI50 (IGROV1): 5.01 µM
GI50 (U251): 3.16 µM
GI50 (UACC-257): 3.16 µM
GI50 (ACHN): 6.31 µM
GI50 (HCC-2998): 3.16 µM
GI50 (NCI-H23): 5.01 µM
GI50 (SK-MEL-5): 2.51 µM
GI50 (TK-10): 3.98 µM
GI50 (NCI/ADR-RES): 5.01 µM
GI50 (60 different cell lines; read-out: GI50, mean): 4.41 µM
GI50 (60 different cell lines; read-out: GI50, median): 3.98 µM
GI50 (SK-OV-3): 10 µM

NC(=O)c1ncn([C@@H]2O[C@H](CO)[C@@H](O)[C@H]2O)n1 [ribavirin]
EC50 (influenza A virus H1N1; Influenza A virus, H1N1, MDCK, read-out: EC50, visual CPE): 1 µg/mL (≈ 4.09 µM)
SI50 (CC50/EC50) (influenza A virus H1N1; visual CPE): >320 µg/mL
